Test [1] has as its target T1, B1R receptor of the rat (Rattus norvegicus, UniProt P97583).
T1 construct: host or cells: CHO K1 cells (Chinese hamster ovary), stably transfected
T1 sequence (P97583 1-337): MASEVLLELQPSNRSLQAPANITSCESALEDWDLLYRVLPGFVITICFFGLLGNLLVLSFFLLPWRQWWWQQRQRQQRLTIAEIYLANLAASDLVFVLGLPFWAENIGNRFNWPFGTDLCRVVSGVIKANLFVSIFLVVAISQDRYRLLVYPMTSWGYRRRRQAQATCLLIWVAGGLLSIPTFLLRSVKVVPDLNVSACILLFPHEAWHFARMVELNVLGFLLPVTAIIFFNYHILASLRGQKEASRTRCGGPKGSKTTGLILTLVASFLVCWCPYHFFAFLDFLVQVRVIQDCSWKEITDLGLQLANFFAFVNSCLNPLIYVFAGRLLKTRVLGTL
The experiment in a line: Functional study on the bradykinin receptor 1 (B1R), FLIPR Ca2+ assay, rB1R cells. The conditions noted are these: test substance 10 μM; rB1R CHO K1 cells; agonist Des-Arg9-bradykinin 100 nM; % inhibition compared with the maximum achievable inhibition. The test is classed as cell-based. The procedure, abridged: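 CHO K1 cells stably expressing human or rat B1R were loaded with Fluo-4 and read on a FLIPR (ex 488/em 540 nm, peak fluorescence). Test compounds at 10 μM were added first, then after 10 min agonist: Lys-Des-Arg9-bradykinin 0.5 nM for hB1R, Des-Arg9-bradykinin 100 nM for rB1R; % inhibition versus maximum inhibition.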

In test [2] the test system is formalin-induced pain behavior. The experiment in a line: Formalin test in the mouse (phase 2, chronic pain component). Particulars: iv, 5 min. before formalin injection, observation 21 to 24 minutes after formalin. The test is classed as in vivo. As for the experimental part:
The formalin test (Dubuisson, D. and Dennis, S. G., 1977, Pain, 4, 161-174) represents a model for both acute and chronic pain. By means of a single formalin injection into the dorsal side of a rear paw, a biphasic nociceptive reaction is induced in freely mobile test animals; the reaction is detected by observing three behaviour patterns which are clearly distinguishable from one another. The reaction is two-phase: phase 1=immediate reaction (duration up to 10 min., shaking of the paw, licking), phase 2=late reaction (after a rest phase; likewise shaking of the paw, licking; duration up to 60 min.). The 1st phase reflects a direct stimulation of the peripheral nocisensors with high spinal nociceptive input (acute pain phase); the 2nd phase reflects a spinal and peripheral hypersensitization (chronic pain phase). In the studies described here, the chronic pain component (phase 2) has been evaluated. Formalin in a volume of 20 μl and a concentration of 1% is administered subcutaneously into the dorsal side of the right rear paw of each animal. The specific changes in behavior, such as lifting, shaking or licking of the paw (score 3, Dubuisson & Dennis, 1977), are observed and recorded in the observation period of 21 to 24 minutes following the formalin injection. The behaviour of the animals after administration of the substance (n=10 per dose of substance) was compared with a control group which received vehicle (n=10). Based on the quantification of the pain behavior, the action of the substance in the formalin test was determined as the change in percent compared with the control. The ED50 calculations (ED50=mean effective dose) were carried out by regression analysis according to the method of Litchfield and Wilcoxon (Litchfield, J. T., Wilcoxon, J. J., 1949, J. Pharmacol. Exp. Ther. 96, 99-113). The time of administration before the formalin injection was chosen in dependence on the mode of administration of the compounds according to the invention (intravenous: 5 min.).

The values that follow come from patent US8435978B2, “Substituted sulfonamide compounds” (Gruenenthal GmbH, priority 2006, dated 2013).

As for `COc1cc(C)c(S(=O)(=O)N2CCCCC2COCC(=O)N2CCN(C3CCN(C)CC3)CC2)c(C)c1` (centres unmarked) [Example 8, 2-[1-(4-methoxy-2,6-dimethyl-phenylsulfonyl)-piperidin-2-ylmethoxy]-1-[4-(1-methyl-piperidin-4-yl)-piperazin-1-yl]-ethanone], in test [1], the “B1R Antagonism, rat [10 μM] % Inhibition” value is recorded as 106.6%. Further, it took a dose of 12.8 mg/kg to reach the 50% effect level in test [2] (ED50).
